From US10450263B2, “Benzo annulenes as antiviral agents” (Southern Research Institute, priority 2017, dated 2019)

Key:
[1] = CC50 reported alongside the CHIKV antiviral assay (cytotoxicity); assay type: cell-based; conditions: cell line not given
Source text: (§1) The compounds below in Table 1 were synthesized with methods identical or analogous to those described herein. The requisite starting materials were commercially available, described in the literature, or readily synthesized by one skilled in the art of organic synthesis.

[2] = test system: Chikungunya virus; experiment: Evaluation of antiviral activity against Chikungunya virus (EC90); assay type: cell-based; conditions: Chikungunya virus, read-out: EC90 (μM) CHIKV, concentration required for 90% inhibition of CHIKV
Source text: EC90 refers to the concentration of the compound that is required for 90% antagonism or inhibition of CHIKV. EC90 also refers to the concentration of a substance that is required for 90% antagonism or inhibition of CHIKV in vivo.
as §1

CC(C)(C)c1ccc(C(=O)Nc2cc3c(cc2N)CCCCC3)cc1 [Compound 20, N-(3-amino-6,7,8,9-tetrahydro-5H-benzo[7]annulen-2-yl)-4-(tert-butyl)benzamide]
CC50 [1]: > 30 µM
EC90 [2]: > 30 µM

CC(C)(C)c1ccc(C(=O)Nc2ccc3c(c2)CCCCC3)cc1 [Compound 19, 4-(tert-Butyl)-N-(6,7,8,9-tetrahydro-5H-benzo[7]annulen-2-yl)benzamide]
CC50 [1]: 79.1 µM
EC90 [2]: 0.7 µM

CC(C)(C)c1ccc(C(=O)Nc2cc3c(cc2OC(F)(F)F)CCCCC3)cc1 [Compound 13, 4-(tert-butyl)-N-(3-(trifluoromethoxy)-6,7,8,9-tetrahydro-5H-benzo[7]annulen-2-yl)benzamide]
CC50 [1]: > 25 µM
EC90 [2]: 13.7 µM

COc1cc2c(cc1NC(=O)c1ccc(F)cc1)CCCCC2 [Compound 78, 4-Fluoro-N-(3-methoxy-6,7,8,9-tetrahydro-5H-benzo[7]annulen-2-yl)benzamide]
CC50 [1]: > 30 µM
EC90 [2]: > 10 µM

COc1cc2c(cc1NC(=O)c1ccc(C(C)(C)O)cc1)CCCCC2 [Compound 46, 4-(2-Hydroxypropan-2-yl)-N-(3-methoxy-6,7,8,9-Tetrahydro-5H-benzo[7]annulen-2-yl)benzamide]
CC50 [1]: 79.2 µM
EC90 [2]: 2.45 µM

COc1cc2c(cc1NC(=O)c1ccc(-c3ccccn3)cc1)CCCCC2 [Compound 67, N-(3-Methoxy-6,7,8,9-tetrahydro-5H-benzo[7]annulen-2-yl)-4-(pyridin-2-yl)benzamide]
CC50 [1]: > 30 µM
EC90 [2]: > 10 µM

CC(C)(C)c1ccc(C(=O)Nc2cc3c(cc2OCc2ccccn2)CCCCC3)cc1 [Compound 85, 4-(tert-Butyl)-N-(3-(pyridin-2-ylmethoxy)-6,7,8,9-tetrahydro-5H-benzo[7]annulen-2-yl)benzamide]
CC50 [1]: 9.4 µM
EC90 [2]: > 10 µM

CC(=O)Oc1cc2c(cc1NC(=O)c1ccc(C(C)(C)C)cc1)CCCCC2 [Compound 16, 3-(4-(tert-Butyl)benzamido)-6,7,8,9-tetrahydro-5H-benzo[7]annulen-2-yl acetate]
CC50 [1]: > 30 µM
EC90 [2]: 2.8 µM

CC(C)(C)c1ncc(C(=O)Nc2ccc3c(c2)CCCCC3)s1 [Compound 25, 2-(tert-butyl)-N-(6,7,8,9-tetrahydro-5H-benzo[7]annulen-2-yl)thiazole-5-carboxamide]
CC50 [1]: 15.7 µM
EC90 [2]: 22.6 µM

CC(C)(C)n1nc(C(=O)Nc2ccc3c(c2)CCCCC3)cc1C(F)(F)F [Compound 27, 1-(tert-butyl)-N-(6,7,8,9-tetrahydro-5H-benzo[7]annulen-2-yl)-5-(trifluoromethyl)-1H-pyrazole-3-carboxamide]
CC50 [1]: > 30 µM
EC90 [2]: > 10 µM

COc1cc2c(cc1NC(=O)c1ccc(C(C)(C)C)cc1)CCCCN2C [Compound 65, 4-(tert-butyl)-N-(8-methoxy-1-methyl-2,3,4,5-tetrahydro-1H-benzo[b]azepin-7-yl)benzamide]
CC50 [1]: > 30 µM
EC90 [2]: > 30 µM

CN(C(=O)c1ccc(C(C)(C)C)cc1)c1ccc2c(c1)CCCCC2 [Compound 28, 4-(tert-butyl)-N-methyl-N-(6,7,8,9-tetrahydro-5H-benzo[7]annulen-2-yl)benzamide]
CC50 [1]: > 30 µM
EC90 [2]: > 10 µM

COc1cc2c(cc1NC(=O)c1ccc(C(O)(C(F)(F)F)C(F)(F)F)cc1)CCCCC2 [Compound 48, 4-(1,1,1,3,3,3-Hexafluoro-2-hydroxypropan-2-yl)-N-(3-methoxy-6,7,8,9-tetrahydro-5H-benzo[7]annulen-2-yl)benzamide]
CC50 [1]: 28.9 µM
EC90 [2]: 2.8 µM

COc1cc2c(cc1NC(=O)c1cc(F)c(C(C)(C)C)c(F)c1)CCCCC2 [Compound 90, 4-(tert-butyl)-3,5-difluoro-N-(3-methoxy-6,7,8,9-tetrahydro-5H-benzo[7]annulen-2-yl)benzamide]
CC50 [1]: > 30 µM
EC90 [2]: 3.3 µM

COCCOc1cc2c(cc1NC(=O)c1ccc(C(C)(C)C)cc1)CCCCC2 [Compound 21, 4-(tert-Butyl)-N-(3-(2-methoxyethoxy)-6,7,8,9-tetrahydro-5H-benzo[7]annulen-2-yl)benzamide]
CC50 [1]: > 30 µM
EC90 [2]: > 30 µM

COc1cc2c(cc1NC(=O)c1ccc(C3(C(F)(F)F)CC3)cc1)CCCCC2 [Compound 51, N-(3-methoxy-6,7,8,9-tetrahydro-5H-benzo[7]annulen-2-yl)-4-(1-(trifluoromethyl)cyclopropyl)benzamide]
CC50 [1]: > 30 µM
EC90 [2]: 1.3 µM

COc1cc2c(cc1NC(=O)c1cc(C)n(C(C)(C)C)n1)CCCCC2 [Compound 61]
CC50 [1]: > 30 µM
EC90 [2]: 5.64 µM

CC(C)(C)c1ccc(C(=O)Nc2cc3c(cc2C(F)(F)F)CCCCC3)cc1 [Compound 14, 4-(tert-butyl)-N-(3-(trifluoromethyl)-6,7,8,9-tetrahydro-5H-benzo[7]annulen-2-yl)benzamide]
CC50 [1]: > 30 µM
EC90 [2]: > 30 µM

COc1cc2c(cc1NC(=O)c1cc(C(C)(C)C)c(O)c(C(C)(C)C)c1)CCCCC2 [Compound 70, 3,5-Di-tert-butyl-4-hydroxy-N-(3-methoxy-6,7,8,9-tetrahydro-5H-benzo[7]annulen-2-yl)benzamide]
CC50 [1]: > 30 µM
EC90 [2]: 44.8 µM

COc1cc2c(cc1N1Cc3ccc(C(C)(C)C)cc3C1=O)CCCCC2 [Compound 59, 6-(tert-Butyl)-2-(3-methoxy-6,7,8,9-tetrahydro-5H-benzo[7]annulen-2-yl)isoindolin-1-ONE]
CC50 [1]: > 30 µM
EC90 [2]: > 10 µM

CC(C)(C)c1ccc(C(=O)Nc2ccc3c(c2OC(F)(F)F)CCCCC3)cc1 [Compound 87, 4-(tert-butyl)-N-(1-(trifluoromethoxy)-6,7,8,9-tetrahydro-5H-benzo[7]annulen-2-yl)benzamide]
CC50 [1]: > 30 µM
EC90 [2]: 19.5 µM

COc1cc2c(cc1NC(=O)c1ccc(C(C)(C)C)cc1)CCCCN2 [Compound 64, 4-(tert-butyl)-N-(8-methoxy-2,3,4,5-tetrahydro-1H-benzo[b]azepin-7-yl)benzamide]
CC50 [1]: > 30 µM
EC90 [2]: 3.3 µM

COc1cc2c(cc1NC(=O)c1ccc3nonc3c1)CCCCC2 [Compound 40, N-(3-Methoxy-6,7,8,9-tetrahydro-5H-benzo[7]annulen-2-yl)benzo[c][1,2,5]oxadiazole-5-carboxamide]
CC50 [1]: > 30 µM
EC90 [2]: > 30 µM

CC(C)(C)c1ccc(C(=O)Nc2cc3c(cc2O)CCCCC3)cc1 [Compound 15, 4-(tert-butyl)-N-(3-hydroxy-6,7,8,9-tetrahydro-5H-benzo[7]annulen-2-yl)benzamide]
CC50 [1]: > 30 µM
EC90 [2]: 0.4 µM

COc1cc2c(cc1NC(=O)c1cc(-c3ccccc3)on1)CCCCC2 [Compound 36, N-(3-methoxy-6,7,8,9-tetrahydro-5H-benzo[7]annulen-2-yl)-5-phenylisoxazole-3-carboxamide]
CC50 [1]: > 30 µM
EC90 [2]: 9 µM

COc1cc2c(cc1NC(=O)c1c[nH]nc1C)CCCCC2 [Compound 69, N-(3-methoxy-6,7,8,9-tetrahydro-5H-benzo[7]annulen-2-yl)-3-methyl-1H-pyrazole-4-carboxamide]
CC50 [1]: > 30 µM
EC90 [2]: 3.1 µM

COc1cc2c(cc1NC(=O)c1cn(C)cn1)CCCCC2 [Compound 32, N-(3-methoxy-6,7,8,9-tetrahydro-5H-benzo[7]annulen-2-yl)-1-methyl-1H-imidazole-4-carboxamide]
CC50 [1]: > 30 µM
EC90 [2]: 55.6 µM

COc1cc2c(cc1NC(=O)c1ccc(C(C)(C)C#N)cc1)CCCCC2 [Compound 50, 4-(2-Cyanopropan-2-yl)-N-(3-methoxy-6,7,8,9-tetrahydro-5H-benzo[7]annulen-2-yl)benzamide]
CC50 [1]: 3.57 µM
EC90 [2]: 1.16 µM

COc1cc2c(cc1NC(=O)C1CCOCC1)CCCCC2 [Compound 82, N-(3-methoxy-6,7,8,9-tetrahydro-5H-benzo[7]annulen-2-yl)tetrahydro-2H-pyran-4-carboxamide]
CC50 [1]: > 30 µM
EC90 [2]: > 10 µM

COc1cc2c(cc1NC(=O)c1cnc(C(C)(C)C)s1)CCCCC2 [Compound 44, 2-(tert-Butyl)-N-(3-methoxy-6,7,8,9-tetrahydro-5H-benzo[7]annulen-2-yl)thiazole-5-carboxamide]
CC50 [1]: > 30 µM
EC90 [2]: 1.2 µM

CCc1ccc(C(=O)Nc2cc3c(cc2OC)CCCCC3)cc1 [Compound 56, 4-Ethyl-N-(3-methoxy-6,7,8,9-tetrahydro-5H-benzo[7]annulen-2-yl)benzamide]
CC50 [1]: > 30 µM
EC90 [2]: > 10 µM

CC(C)(C)c1ccc(C(=O)Nc2cc3c(cc2OCc2ccc(C(F)(F)F)cc2)CCCCC3)cc1 [Compound 17, 4-(tert-Butyl)-N-(3-((4-(trifluoromethyl)benzyl)oxy)-6,7,8,9-tetrahydro-5H-benzo[7]annulen-2-yl)benzamide]
CC50 [1]: > 30 µM
EC90 [2]: > 30 µM

CC(C)(C)c1ccc(C(=O)Nc2cc3c(cc2[N+](=O)[O-])CCCCC3)cc1 [Compound 22, 4-(tert-butyl)-N-(3-nitro-6,7,8,9-tetrahydro-5H-benzo[7]annulen-2-yl)benzamide]
CC50 [1]: > 30 µM
EC90 [2]: > 30 µM

COc1c(NC(=O)c2ccc(C(C)(C)C)cc2)cc2c(c1F)CCCCC2 [Compound 23, 4-(tert-butyl)-N-(4-fluoro-3-methoxy-6,7,8,9-tetrahydro-5H-benzo[7]annulen-2-yl)benzamide]
CC50 [1]: > 30 µM
EC90 [2]: 12.5 µM

COc1c(NC(=O)c2cnc(C(C)(C)C)s2)cc2c(c1F)CCCCC2 [Compound 24, 2-(tert-Butyl)-N-(4-fluoro-3-methoxy-6,7,8,9-tetrahydro-5H-benzo[7]annulen-2-yl)thiazole-5-carboxamide]
CC50 [1]: > 30 µM
EC90 [2]: > 10 µM

COc1cc2c(cc1NC(=O)c1ccc(C(C)(C)C(F)(F)F)cc1)CCCCC2 [Compound 52, N-(3-methoxy-6,7,8,9-tetrahydro-5H-benzo[7]annulen-2-yl)-4-(1,1,1-trifluoro-2-methylpropan-2-yl)benzamide]
CC50 [1]: 19.1 µM
EC90 [2]: 3.47 µM
